± gives the standard deviation of the averaged measurements.
How the values were obtained:
CANERTINIB = compound: C=CC(=O)Nc1cc2c(Nc3ccc(F)c(Cl)c3)ncnc2cc1OCCCN1CCOCC1 [CANERTINIB]; experiment: surviving fraction relative to DMSO-only wells; higher = less growth inhibition; details: exposure time: 5 days
Method in brief: (§1)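 Five days of continuous inhibitor exposure, at 0.5, 1, 5, 10, 50, 100, 500 and 1000 nM, followed a 24-hour period after log-phase tumour cell lines were seeded at 250–500 cells per well in 384-well plates. Surviving fraction was derived from CellTiter-Glo luminescence relative to the median of DMSO-only wells. Plates were read after 10 minutes at room temperature, and lines screened three times were kept only if replicate Pearson r >0.7 and median Z' >0.3.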

[1] = compound: Cn1cc(C2=Nc3cc(NC(=O)C(N)C4CCCCC4)cc4c3C2=CNNC4=O)cn1; experiment: as above; details: exposure time: 5 days
Method in brief: as §1

Test System	surviving fraction (CANERTINIB; 0.5 nM)	surviving fraction (CANERTINIB; 1 nM)	surviving fraction (CANERTINIB; 5 nM)	surviving fraction (CANERTINIB; 10 nM)	surviving fraction (CANERTINIB; 50 nM)	surviving fraction (CANERTINIB; 100 nM)	surviving fraction (CANERTINIB; 500 nM)	surviving fraction (CANERTINIB; 1000 nM)	surviving fraction ([1]; 0.5 nM)	surviving fraction ([1]; 1 nM)	surviving fraction ([1]; 5 nM)	surviving fraction ([1]; 10 nM)	surviving fraction ([1]; 50 nM)	surviving fraction ([1]; 100 nM)	surviving fraction ([1]; 500 nM)	surviving fraction ([1]; 1000 nM)
22RV1 PROSTATE	0.981 ± 0.038	0.913 ± 0.091	0.985 ± 0.033	1.08 ± 0.25	1.05 ± 0.24	1.01 ± 0.11	1.12 ± 0.22	0.905 ± 0.14	1.07 ± 0.021	1.08 ± 0.059	0.99 ± 0.015	1.01 ± 0.02	1.03 ± 0.054	0.854 ± 0.037	0.626 ± 0.064	0.489 ± 0.029
93VU HEADNECK	0.784 ± 0.029	0.787 ± 0.065	0.86 ± 0.034	0.698 ± 0.042	1.07 ± 0.053	0.738 ± 0.062	0.63 ± 0.02	0.312 ± 0.044	0.976 ± 0.077	1 ± 0.069	1.07 ± 0.02	1.09 ± 0.087	0.948 ± 0.033	0.945 ± 0.064	0.741 ± 0.044	0.388 ± 0.05
143B BONE	1.05 ± 0.044	1.04 ± 0.057	1.05 ± 0.038	1.06 ± 0.061	1.08 ± 0.047	1.07 ± 0.039	1.04 ± 0.067	0.984 ± 0.073	0.981 ± 0.052	1.01 ± 0.029	0.992 ± 0.033	1.0045 ± 0.00071	0.96 ± 0.052	1 ± 0.035	0.303 ± 0.0042	0.036 ± 0.0014
A549 LUNG	0.915 ± 0.018	0.909 ± 0.018	0.93 ± 0.014	0.873 ± 0.01	0.955 ± 0.046	0.965 ± 0.026	0.9707 ± 0.0042	0.948 ± 0.05	1.04 ± 0.034	1.08 ± 0.082	1.03 ± 0.021	1.03 ± 0.018	1.08 ± 0.048	1.02 ± 0.033	1.06 ± 0.029	1.01 ± 0.02
ASKA SYNOVIAL	0.958 ± 0.03	0.93 ± 0.014	1.04 ± 0.024	0.917 ± 0.062	1.16 ± 0.077	1.09 ± 0.059	0.933 ± 0.1	0.721 ± 0.047	0.985 ± 0.08	1 ± 0.075	0.98 ± 0.028	0.992 ± 0.048	0.65 ± 0.054	0.355 ± 0.028	0.174 ± 0.013	0.229 ± 0.0066
BT20 BREAST	0.691 ± 0.0098	0.712 ± 0.017	0.654 ± 0.075	0.609 ± 0.058	0.908 ± 0.035	0.899 ± 0.084	0.82 ± 0.057	0.824 ± 0.069	1.1 ± 0.05	1.08 ± 0.047	1.09 ± 0.092	1.05 ± 0.074	0.943 ± 0.08	0.847 ± 0.054	0.976 ± 0.1	0.874 ± 0.065
BT549 BREAST	0.752 ± 0.037	0.886 ± 0.18	0.832 ± 0.08	0.808 ± 0.042	0.937 ± 0.18	1.08 ± 0.052	0.811 ± 0.072	0.47 ± 0.058	1.07 ± 0.11	0.943 ± 0.079	0.957 ± 0.21	1.05 ± 0.14	0.659 ± 0.073	0.371 ± 0.012	0.0533 ± 0.008	0.027 ± 0.006
CAL51 BREAST	0.937 ± 0.078	0.92 ± 0.061	0.983 ± 0.053	0.976 ± 0.018	0.974 ± 0.038	1.05 ± 0.083	0.87 ± 0.014	0.481 ± 0.015	0.889 ± 0.037	0.973 ± 0.041	0.945 ± 0.052	0.903 ± 0.037	0.962 ± 0.079	0.875 ± 0.048	0.484 ± 0.0085	0.276 ± 0.026
CAL72 BONE	0.982 ± 0.056	0.989 ± 0.067	0.979 ± 0.058	0.969 ± 0.052	1.02 ± 0.2	1.11 ± 0.037	1.03 ± 0.1	1.08 ± 0.053	1.04 ± 0.03	1.02 ± 0.038	1.02 ± 0.019	1.02 ± 0.04	0.937 ± 0.052	0.836 ± 0.043	0.111 ± 0.011	0.147 ± 0.01
CAL120 BREAST	0.903 ± 0.055	0.91 ± 0.063	0.91 ± 0.08	0.902 ± 0.036	0.921 ± 0.087	0.928 ± 0.046	0.795 ± 0.092	0.597 ± 0.021	0.966 ± 0.012	1.02 ± 0.019	1.01 ± 0.013	1.01 ± 0.038	0.966 ± 0.029	0.856 ± 0.044	0.375 ± 0.02	0.24 ± 0.023
CASKI CERVIX	0.83 ± 0.027	0.8 ± 0.042	0.644 ± 0.052	0.704 ± 0.042	0.555 ± 0.037	0.516 ± 0.054	0.157 ± 0.018	0.151 ± 0.022	0.918 ± 0.028	0.962 ± 0.082	0.92 ± 0.028	0.949 ± 0.038	0.511 ± 0.043	0.251 ± 0.071	0.057 ± 0.0095	0.0573 ± 0.0038
CHLA90 AUTONOMIC GANGLIA	0.869 ± 0.021	0.876 ± 0.083	0.744 ± 0.072	0.704 ± 0.03	0.812 ± 0.08	0.761 ± 0.057	0.684 ± 0.045	0.643 ± 0.062	1.01 ± 0.025	1.07 ± 0.07	0.956 ± 0.057	0.992 ± 0.023	0.772 ± 0.03	0.557 ± 0.04	0.101 ± 0.0068	0.0843 ± 0.011
CME SYNOVIAL	0.93 ± 0.083	0.969 ± 0.098	0.918 ± 0.065	0.888 ± 0.087	1.18 ± 0.034	1.2 ± 0.11	1.05 ± 0.033	0.876 ± 0.11	1.243 ± 0.0098	1.27 ± 0.03	1.3 ± 0.06	1.23 ± 0.059	1.13 ± 0.049	1.02 ± 0.065	0.733 ± 0.036	0.414 ± 0.0087
COLO320DM LARGE INTESTINE	1.14 ± 0.076	1.15 ± 0.042	1.04 ± 0.062	1.05 ± 0.06	1.11 ± 0.084	1.04 ± 0.047	0.893 ± 0.032	0.66 ± 0.018	0.957 ± 0.12	1.09 ± 0.15	0.97 ± 0.076	1.08 ± 0.11	1.01 ± 0.23	0.954 ± 0.098	0.877 ± 0.13	0.664 ± 0.053
DU4475 BREAST	0.819 ± 0.11	0.797 ± 0.088	0.782 ± 0.099	0.742 ± 0.15	0.976 ± 0.12	0.919 ± 0.045	0.79 ± 0.18	0.596 ± 0.13	0.979 ± 0.32	0.981 ± 0.17	1.03 ± 0.2	0.96 ± 0.19	0.821 ± 0.25	0.659 ± 0.19	0.136 ± 0.026	0.0377 ± 0.0084
G292 BONE	0.914 ± 0.061	0.949 ± 0.028	0.966 ± 0.055	0.957 ± 0.019	0.955 ± 0.054	0.997 ± 0.073	0.876 ± 0.046	0.677 ± 0.051	1.03 ± 0.019	0.968 ± 0.051	1.02 ± 0.077	1.04 ± 0.029	0.631 ± 0.018	0.315 ± 0.0083	0.11 ± 0.0059	0.0638 ± 0.0015

Source: the supplement of paper PMC6045584
